# Test results: patent US20130184280A1, “SUBSTITUTED THIAZOLES AS VEGFR2 KINASE INHIBITORS” (TELIK, INC., priority 2011, published 2013)
# Tests used:
# [1] = In Vitro Cytotoxicity Assay HCT116 (CellTiter-Glo); assay type: cell-based; conditions: human, HCT116 colon carcinoma cells, cultured three days
# Description: (§1) The cell lines HL60 (human promyelocytic leukemia) and HCT116 (human colon carcinoma) were obtained from the American Type Culture Collection, Manassas, Va., U.S.A. All products were used in accordance with manufacturer's directions. The cytotoxicity assays were conducted in triplicate, in each case with solvent control.
# (§2) Log-phase cells were trypsinized, collected by centrifugation, and resuspended in a small volume of fresh medium, and the density of viable cells was determined following Trypan Blue staining Cells were diluted in fresh media, the test compounds (concentrations between 0.1 μM and 200 μM, dissolved in DMSO, 50 μL) added immediately after dilution to achieve a final DMSO concentration of 0.5%, then the suspensions added at 150 μL/well to 96-well plates, and incubated overnight to allow attachment in the case of adherent cells. The cells were cultured for three days (about three doubling times). The cells were then collected by centrifugation, and 100 μL of the culture supernatant was replaced by the CellTiter-Glo reagent. After incubation for 15 minutes at room temperature, the plate was read with a luminometer. […] The table gives cytotoxicity IC50s in μm.
# [2] = In Vitro Cytotoxicity Assay HL60 (CellTiter-Glo); assay type: cell-based; conditions: human, HL60 promyelocytic leukemia cells; HL 60 cells, cultured three days
# Description: as §1, §2
# VEGFR2 kinase = biological target: T1, VEGFR2 kinase (Homo sapiens, UniProt P35968); test: In Vitro VEGFR2 Kinase Assay; assay type: biochemical; conditions: FP; CSKtide substrate, 60 minutes at room temperature
# T1 construct: purchased InVitrogen
# Description: In Vitro VEGFR2 Kinase Assay
# 50 ng/well VEGFR2 kinase (from InVitrogen) was mixed in buffer (14.5 μL/well). To this were added, 0.5 μL of the compound of this invention at a concentration of 2.5% in DMSO. After incubatiuon for 5 minutes at room temperature, 5 μL of substrate (CSKtide, 400 nM) and 8 μL ATP were added. The mixture was incubated for 60 minutes at room temperature and 60 uL of binding reagent (beads) was added. After incubation overnight at room temperature, the plate was read with a LJL plate reader.
# T1 sequence (P35968 20-1356): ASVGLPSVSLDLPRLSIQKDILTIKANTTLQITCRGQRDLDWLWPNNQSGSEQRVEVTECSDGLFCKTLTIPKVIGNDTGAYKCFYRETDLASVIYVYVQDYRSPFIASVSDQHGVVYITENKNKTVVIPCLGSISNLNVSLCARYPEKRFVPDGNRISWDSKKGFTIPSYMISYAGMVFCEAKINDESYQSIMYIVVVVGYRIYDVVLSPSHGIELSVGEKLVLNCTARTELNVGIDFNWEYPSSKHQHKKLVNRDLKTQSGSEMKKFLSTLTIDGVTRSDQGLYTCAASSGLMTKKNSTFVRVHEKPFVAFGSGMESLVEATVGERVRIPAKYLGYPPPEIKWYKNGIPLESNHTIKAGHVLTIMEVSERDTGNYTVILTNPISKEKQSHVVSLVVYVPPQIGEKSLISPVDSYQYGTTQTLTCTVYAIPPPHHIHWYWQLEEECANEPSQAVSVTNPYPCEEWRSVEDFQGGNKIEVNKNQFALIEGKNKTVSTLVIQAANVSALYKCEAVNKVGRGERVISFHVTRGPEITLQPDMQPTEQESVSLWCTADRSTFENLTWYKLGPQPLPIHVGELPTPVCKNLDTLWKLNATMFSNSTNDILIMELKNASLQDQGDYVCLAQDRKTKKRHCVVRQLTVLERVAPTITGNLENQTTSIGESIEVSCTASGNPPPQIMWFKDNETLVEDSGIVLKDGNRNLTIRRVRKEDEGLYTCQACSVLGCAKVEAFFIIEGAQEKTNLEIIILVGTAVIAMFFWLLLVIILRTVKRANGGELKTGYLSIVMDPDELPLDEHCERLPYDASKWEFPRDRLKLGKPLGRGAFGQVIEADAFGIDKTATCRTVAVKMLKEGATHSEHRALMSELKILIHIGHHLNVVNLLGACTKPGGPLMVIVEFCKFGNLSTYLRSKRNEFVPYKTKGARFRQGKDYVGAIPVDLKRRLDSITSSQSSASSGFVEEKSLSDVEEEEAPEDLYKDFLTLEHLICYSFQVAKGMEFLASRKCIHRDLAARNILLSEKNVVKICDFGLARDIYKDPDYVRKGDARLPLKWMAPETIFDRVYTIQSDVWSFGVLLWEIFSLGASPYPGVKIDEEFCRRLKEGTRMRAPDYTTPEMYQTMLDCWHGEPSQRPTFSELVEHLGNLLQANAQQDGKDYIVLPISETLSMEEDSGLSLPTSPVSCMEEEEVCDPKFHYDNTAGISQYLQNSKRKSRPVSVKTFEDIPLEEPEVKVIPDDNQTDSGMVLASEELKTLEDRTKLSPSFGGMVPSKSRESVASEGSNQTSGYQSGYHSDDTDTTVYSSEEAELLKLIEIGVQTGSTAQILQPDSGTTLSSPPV
IC50 (VEGFR2 kinase),Compound,IC50 at 3 days [1],IC50 at 3 days [2]
–,Nc1ncncc1-c1nc(-c2ccc(NC(=O)Nc3cccc(C(F)(F)F)c3)cc2)cs1 [Compound 1],4 µM,0.9 µM
10 nM,Nc1ncncc1-c1nc(-c2cccc(NC(=O)Nc3ccccc3)c2)cs1 [Compound 4],6 µM,0.2 µM
30 nM,Nc1ncncc1-c1nc(-c2cccc(NC(=O)c3ccc(F)cc3)c2)cs1 [Compound 5],30 µM,–
20 nM,"Nc1ncncc1-c1nc(-c2cccc(NC(=O)c3cccc(Cl)c3)c2)cs1 [Compound 6, N-(3-(2-(4-aminopyrimidin-5-yl)thiazol-4-yl)phenyl)-3-chlorobenzamide]",> 50 µM,3 µM
70 nM,Nc1ncncc1-c1nc(-c2cccc(NC(=O)c3ccc(Cl)cc3)c2)cs1 [Compound 8],20 µM,0.3 µM
300 nM,Nc1ncncc1-c1nc(-c2cccc(NC(=O)c3ccc(F)c(F)c3)c2)cs1 [Compound 9],50 µM,20 µM
20 nM,Nc1ncncc1-c1nc(-c2cccc(NC(=O)Nc3ccc(F)c(C(F)(F)F)c3)c2)cs1 [Compound 10],2 µM,0.5 µM
10 nM,Cc1ccc(NC(=O)Nc2cccc(-c3csc(-c4cncnc4N)n3)c2)cc1Cl [Compound 11],3 µM,–
100 nM,Nc1ncncc1-c1nc(-c2cccc(NC(=O)Nc3cccc(F)c3)c2)cs1 [Compound 12],40 µM,0.1 µM
200 nM,Nc1ncncc1-c1nc(-c2cccc(NC(=O)c3ccc([N+](=O)[O-])cc3)c2)cs1 [Compound 13],> 50 µM,> 50 µM
30 nM,COc1ccc(NC(=O)Nc2cccc(-c3csc(-c4cncnc4N)n3)c2)cc1 [Compound 14],20 µM,0.3 µM
400 nM,Nc1ncncc1-c1nc(-c2cccc(NC(=O)c3ccc(-c4ccccc4)cc3)c2)cs1 [Compound 15],3 µM,1 µM
4 nM,Nc1ncncc1-c1nc(-c2cccc(NC(=O)Nc3ccc(Cl)cc3)c2)cs1 [Compound 16],10 µM,1 µM
30 nM,Nc1ncncc1-c1nc(-c2cccc(NC(=O)Nc3ccccc3Cl)c2)cs1 [Compound 18],30 µM,0.5 µM
70 nM,Cc1ccccc1NC(=O)Nc1cccc(-c2csc(-c3cncnc3N)n2)c1 [Compound 19],> 50 µM,0.9 µM
50 nM,Nc1ncncc1-c1nc(-c2cccc(NC(=O)Nc3ccccc3C(F)(F)F)c2)cs1 [Compound 20],50 µM,0.7 µM
200 nM,Nc1ncncc1-c1nc(-c2cccc(NC(=O)c3ccccn3)c2)cs1 [Compound 21],> 50 µM,4 µM
20 nM,Nc1ncncc1-c1nc(-c2cccc(NC(=O)Nc3ccc(Cl)c(C(F)(F)F)c3)c2)cs1 [Compound 22],1 µM,1 µM
500 nM,Nc1ncncc1-c1nc(-c2cccc(NC(=O)c3cccnc3)c2)cs1 [Compound 23],10 µM,–
–,Nc1ncncc1-c1nc(-c2cccc(NC(=O)c3ccncc3)c2)cs1 [Compound 24],30 µM,–
300 nM,COc1ccccc1C(=O)Nc1cccc(-c2csc(-c3cncnc3N)n2)c1 [Compound 25],10 µM,–
40 nM,COc1ccccc1NC(=O)Nc1cccc(-c2csc(-c3cncnc3N)n2)c1 [Compound 26],7 µM,0.4 µM
40 nM,Cc1ccc(NC(=O)Nc2cccc(-c3csc(-c4cncnc4N)n3)c2)cc1C [Compound 27],2 µM,4 µM

IC50 (VEGFR2 kinase),Compound,IC50 at 3 days [1],IC50 at 3 days [2]
60 nM,N#Cc1ccc(NC(=O)Nc2cccc(-c3csc(-c4cncnc4N)n3)c2)cc1 [Compound 29],> 50 µM,–
400 nM,N#Cc1cccc(NC(=O)Nc2cccc(-c3csc(-c4cncnc4N)n3)c2)c1 [Compound 30],> 50 µM,–
60 nM,Nc1ncncc1-c1nc(-c2cccc(NC(=O)Nc3cccc(Cl)c3)c2)cs1 [Compound 31],1 µM,–
50 nM,Nc1ncncc1-c1nc(-c2cccc(NC(=O)Nc3ccccc3[N+](=O)[O-])c2)cs1 [Compound 33],> 50 µM,–
300 nM,CCCCOC(=O)c1ccccc1NC(=O)Nc1cccc(-c2csc(-c3cncnc3N)n2)c1 [Compound 36],10 µM,–
200 nM,CCc1cccc(C)c1NC(=O)Nc1cccc(-c2csc(-c3cncnc3N)n2)c1 [Compound 38],> 50 µM,–
100 nM,Nc1ncncc1-c1nc(-c2cccc(NC(=O)Cc3cccc(C(F)(F)F)c3)c2)cs1 [Compound 40],7 µM,–
10 nM,Cc1cccc(C(=O)Nc2cccc(-c3csc(-c4cncnc4N)n3)c2)c1 [Compound 41],20 µM,–
100 nM,CCOC(=O)c1cccc(NC(=O)Nc2cccc(-c3csc(-c4cncnc4N)n3)c2)c1 [Compound 42],4 µM,–
20 nM,CC(C)(O)c1cccc(NC(=O)Nc2cccc(-c3csc(-c4cncnc4N)n3)c2)c1 [Compound 43],5 µM,–
30 nM,Nc1ncncc1-c1nc(-c2cccc(NC(=O)Nc3cccc(CO)c3)c2)cs1 [Compound 44],30 µM,–
40 nM,Nc1ncncc1-c1nc(-c2cccc(NC(=O)Cc3ccccc3)c2)cs1 [Compound 45],30 µM,–
90 nM,Cc1nc(-c2cccc(NC(=O)Nc3cccc(-c4csc(-c5cncnc5N)n4)c3)c2)no1 [Compound 47],> 50 µM,–
400 nM,Cc1cccc(NC(=O)c2cccc(-c3csc(-c4cncnc4N)n3)c2)c1 [Compound 49],10 µM,–
300 nM,CCOC(=O)CNC(=O)Nc1cccc(-c2csc(-c3cncnc3N)n2)c1 [Compound 59],30 µM,–
80 nM,CCNC(=O)Nc1cccc(-c2csc(-c3cncnc3N)n2)c1 [Compound 60],> 50 µM,–
300 nM,CC(=O)Nc1cccc(-c2csc(-c3cncnc3N)n2)c1 [Compound 61],40 µM,–
20 nM,Nc1ncncc1-c1nc(-c2cccc(NC(=O)C3CCCCC3)c2)cs1 [Compound 62],> 50 µM,–
70 nM,Nc1ncncc1-c1nc(-c2cccc(NC(=O)NC3CCCC3)c2)cs1 [Compound 63],7 µM,–
300 nM,Nc1ncncc1-c1nc(-c2cccc(NC(=O)C3CCCC3)c2)cs1 [Compound 64],> 50 µM,–
300 nM,Nc1ncncc1-c1nc(-c2cccc(NC(=O)CN3CCCCC3)c2)cs1 [Compound 67],10 µM,–
200 nM,Nc1ncncc1-c1nc(-c2cccc(NC(=O)N3CCCCC3)c2)cs1 [Compound 68],20 µM,–
400 nM,Nc1ncncc1-c1nc(-c2cccc(NC(=O)N3CCC(O)CC3)c2)cs1 [Compound 69],4 µM,–
